Results taken from patent US7118731B2, “Drugs for the diagnosis of tissue reproductive activity or the treatment of proliferative diseases” (priority 2002, dated 2006).
Where two headings read alike, the source gives them in different places. Marks after values point to notes of the source that are not given here.

Key:
[1] = literature; cited from earlier work
Walker tumor = test: scintigraphy of Walker tumor; type: in vivo; conditions: 37 MBq into tail vein, four hours after administration, Walker tumor in Wistar rats, FIG. 11
Method: Malignant tumor, a typical proliferative disease, was observed by scintigraphy. Walker tumor cells were transplanted subcutaneously in the right inguinal region of Wistar rats. After the transplantation, 37 MBq of [I-123] ITDU was injected into the tail vein of rats that suffered a palpable tumor of about 20 mm that was suitable for scintigraphy. Each tumor-transplanted rat was anesthetized with Ravonal four hours after the administration of a drug. Then the rat was fixed in the face-up position and observed statically with gamma-camera imaging equipment (GCA-90B, Toshiba Corporation). Imaging was performed using a high-resolution medium-energy collimator to obtain images for 10 minutes with a resolution of 256×256.

L-M cells = test: incorporation of labeled compounds into L-M cells; type: cell-based; conditions: for Incorporation, L-M: 2 nmol labeled compound, one hour, L-M cells; for thymidine kinase-dependent incorporation into cells: L-M versus L-M (TK-) cells; for (L-M)/{L-M(TK-)}: ratio of incorporation, L-M to L-M (TK-), T-test
Method: (§1) L-M and L-M (TK-) cells in the logarithmic growth phase were planted on 24-well plates, each carrying 2.0×10^5 cells, and cultured overnight. Then 2 nmol of a radioactive iodine-labeled nucleic acid derivative was added and allowed to be incorporated in the cells for one hour. The cells were washed three times with an ice-cooled phosphate buffer solution, and dissolved in 0.1N NaOH, followed by determination of degree of radioactivity incorporated in the cells using an automatic well-type gamma counter (ARC-380 or ARC-300, Aloka Co., Ltd.). Measurements were analyzed to make evaluations based on the amount of the incorporated label molecules per unit weight of cellular proteins. […] ITdU and [I-125] […] IUR as a control.

L-M (TK-) cells = test: incorporation of labeled compounds into thymidine kinase-deficient L-M (TK-) cells; type: cell-based; conditions: 2 nmol labeled compound, one hour
Method: as §1

[2] = in vivo label stability, accumulation of free iodine in thyroid gland (Example 17); conditions: 185 KBq into tail vein, 10 week old normal mice (C57BL/6), longer intervals, FIG. 8
Method: To evaluate in vivo stability of deiodination against each radioactive iodine-labeled nucleic acid derivative, tests were conducted to study accumulation of free iodine in the thyroid gland of normal mice. A 185 KBq of each labeled compound was injected in each of 10 week old normal mice (C57BL/6) into the tail vein, and three animals were sacrificed and anatomized at intervals longer than in Example 16. Incorporation of radioactivity in the thyroid gland was measured with an automatic well-type gamma counter (ARC-300, Aloka Co., Ltd.). Incorporated radioactivity in tissue (% ID) was calculated as the administrated per gram of the tissue, and represented in percentage, as shown in FIG. 8.

[3] = biological target: T1, E. coli-originating thymidine phospholylase (Escherichia coli, UniProt P07650); conditions: for 5-IU production rate: 0.5–12.0 nmol labeled compound, 0.0009–9.0 units enzyme, n = 3; for 5-IU production rate / metabolic stability of glycosidic bond compared with [I-125] IUR: 25° C.; for Relative activity (C—N glycosidic linkage cleavage): relative to [I-125]IUR = 1.00; for metabolic stability of glycosidic bond compared with [I-125] IUR: thymidine phospholylase
T1 sequence (P07650 whole entry): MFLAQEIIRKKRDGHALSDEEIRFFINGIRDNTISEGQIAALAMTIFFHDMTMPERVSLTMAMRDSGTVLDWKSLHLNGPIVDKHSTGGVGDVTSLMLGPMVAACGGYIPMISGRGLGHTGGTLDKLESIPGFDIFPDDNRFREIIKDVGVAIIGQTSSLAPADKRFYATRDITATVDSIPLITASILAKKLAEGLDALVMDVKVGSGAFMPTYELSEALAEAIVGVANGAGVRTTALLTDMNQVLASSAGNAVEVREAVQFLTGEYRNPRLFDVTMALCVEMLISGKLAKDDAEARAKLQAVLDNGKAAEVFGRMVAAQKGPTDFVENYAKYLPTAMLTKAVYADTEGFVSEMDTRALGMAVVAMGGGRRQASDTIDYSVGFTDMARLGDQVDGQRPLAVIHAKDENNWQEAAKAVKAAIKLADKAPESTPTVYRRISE
Method: To the reaction liquid, 0.5–12.0 nmol of the labeled compound and 0.0009–9.0 units of a liquid enzyme (Sigma Corporation) was added and reacted at 25° C. for a fixed period of time, followed by treatment in a boiling water bath for 3 minutes to stop the reaction. […] The reaction liquid was subjected to centrifugal separation, and the supernatant was applied over a silica gel plate along with an authentic standard (5-iodouridine: IU) and a non-labeled parent compound. It was developed with a mixture of chloroform and isopropyl alcohol (3:1), and then the autoradiogram was measured with a bioimaging analyzer (BAS-1500, Fuji Photo Film Co., Ltd.). The area of interest was set to peak components of the Rf value corresponding to the authentic standard, and the amount of the resulting metabolite was calculated from its proportion in percentage. […] FITAU and [I-125] IMBAU, a reversed phase silica gel plate was used, and after development with a mixture of methanol and water (3:7), an autoradiogram was measured with a bioimaging analyzer (BAS-1500; Fuji Photo Film Co., Ltd.) similarly to the [I-125] IUR and others.

thymidine kinase = test: in vitro phosphorylation activity by thymidine kinase (crude enzyme from LL/2 cells); type: biochemical, mouse; conditions: for phosphorylation activity attributed to thymidine kinase: crude enzyme from LL/2 cells; for Phosphorylated material production rate: crude enzyme from LL/2 mouse lung cancer cells, 2 nmole labeled compound, ATP, 37° C., n = 3
Method: Liquid enzyme was extracted from a LL/2 mouse's lung cancer cell strain in the logarithmic growth phase according to the method of Wolcott R M and Colacino J M (Anal. Biochem 178, p.38–40 (1989)). To a reaction liquid containing ATP, which is a phosphate donor, 2 nmole of the label compound and the liquid enzyme were added and reacted at 37° C. for a fixed period of time. The reaction was stopped by adding 1 mL of a 100 mM lanthanum chloride/5 mM triethanolamine solution. Phosphorylated material was prepared by centrifugal separation to form a phosphate-metal complex, followed by measuring a radioactivity of the resulting precipitate with an automatic well-type gamma counter (ARC-380, Aloka Co., Ltd.). […] ITDU and [I-125] ITAU.

[4] = in vivo label stability, accumulation of free iodine in thyroid gland (Example 16); conditions: 370 KBq into tail vein, 10 week old normal mice, FIG. 7
Method: To evaluate in vivo label stability of [I-125] ITDU and [I-125] ITAU, tests were conducted to study the accumulation of free iodine in the thyroid gland in normal mice. […] For a control, in vivo distribution of [I-125] IUR was also observed. […] Incorporated radioactivity in tissue was calculated as the administrated dose per gram of the tissue per unit time, and represented in percentage, as shown in FIG. 7. […] ITDU and [I-125]

[5] = biological target: T1, E. coli-originating thymidine phospholylase; conditions: for 5-iodouridine production rate: 2 nmole labeled compound, 9 units enzyme, n = 3; for 5-iodouridine production rate / metabolic stability of glycosidic bond compared with [I-125] IUR: 25° C.; for relative activity (C—N glycosidic bond cleavage): relative to [I-125]IUR = 1.00; for metabolic stability of glycosidic bond compared with [I-125] IUR: thymidine phospholylase
Method: To the reaction liquid, 2 nmole of the labeled compound and 9 units of a liquid enzyme (Sigma Corporation) were added and reacted at 25° C. for a fixed period of time, and the reaction was stopped by treatment in a boiling water bath for 3 minutes. The reaction liquid was subjected to centrifugal separation, and the supernatant was applied over a thin layer silica gel plate along with an authentic standard (5-iodouridine: IU) and a non-labeled parent compound. It was developed with a mixture of chloroform and isopropyl alcohol (3:1), and then autoradiography was measured with a bioimaging analyzer (BAS-1500, Fuji Photo Film Co., Ltd.). The area of interest was set to peak components of the Rf value corresponding to the authentic standard, and the amount of the resulting metabolite was calculated from its proportion in percentage.

[6] = in vivo distribution of [I-125] ITDU in normal mice; conditions: 370 KBq into tail vein, FIG. 9
Method: A 370 KBq of [I-125] ITDU was injected in each of 10 week old normal mice into the tail vein, and three animals were sacrificed and anatomized at appropriate intervals. Incorporation of radioactivity in each tissue sample was measured with an automatic well-type gamma counter (ARC-300, Aloka Co., Ltd.). Incorporated radioactivity in tissue was calculated as the administrated dose per gram of the tissue, and represented in percentage, as shown in FIG. 9.

[7] = in vivo accumulation in proliferating tissues of normal mice; conditions: 185 MBq through tail vein, normal mice (C57BL/6), FIG. 10
Method: To evaluate the accumulation of each radioactive iodine-labeled nucleic acid derivative in proliferating tissues, tests were conducted to study in vivo distribution in normal mice. A 185 MBq of each labeled compound was injected in each of 10 week old normal mice (C57BL/6) through its tail vein, and three animals were sacrificed and anatomized at appropriate intervals. Incorporation of radioactivity in each tissue sample was measured with an automatic well-type gamma counter (ARC-300, Aloka Co., Ltd.). Incorporated radioactivity in tissue was calculated as the administrated dose per unit weight of the tissue, and represented in percentage (% ID/g).

Compound | stability in vivo [1] | Incorporation, L-M (L-M cells) [pmol/mg protein/h] | thymidine kinase-dependent incorporation into cells (L-M cells) | (L-M)/{L-M(TK-)} (L-M cells) | Incorporation, L-M (TK−) (L-M (TK-) cells) [pmol/mg protein/h] | accumulated radioactivity in the thyroid gland (in vivo label stability) [2] | 5-IU production rate [3] [pmol/units/0.5 h] | Relative activity (C—N glycosidic linkage cleavage) [3] | relative activity (C—N glycosidic bond cleavage) [5] | also measured
O=c1[nH]c(=O)n([C@@H]2O[C@H](CO)[C@@H](O)[C@@H]2F)cc1I [2′-fluoro-5-iodoarabinouridine] | high stability in vivo | – | – | – | – | – | – | – | – | –
Cc1cn([C@H]2C[C@H](F)[C@@H](CO)O2)c(=O)[nH]c1=O [3′-deoxy-3′-fluorothymidine] | high stability in vivo | – | – | – | – | – | – | – | – | –
O=c1[nH]c(=O)n([C@H]2C[C@H](O)[C@@H](CO)O2)cc1I [5-iodo-deoxyuridine] | decomposed rapidly in vivo | – | – | – | – | – | – | – | – | –
O=c1[nH]c(=O)n([C@H]2C[C@H](O)[C@@H](CO)S2)cc1[123I] [[I-123] ITDU, [I-123]-5-iodo-4′-thio-2′-deoxyuridine] | – | – | – | – | – | – | – | – | – | scintigraphic imaging of transplanted tumor (Walker tumor): clear imaging of transplanted tumors
O=c1[nH]c(=O)n([C@@H]2S[C@H](CO)[C@@H](O)[C@@H]2F)cc1[125I] [[I-125] FITAU, [I-125]-5-iodo-1-(2-deoxy-2-fluoro-4-thio-β-D-arabinopentofuranosyl)uracil] | – | 0.34 ± 0.05 | incorporated in cells in a thymidine kinase dependent way | 1.62*** | 0.21 ± 0.05 | significantly smaller than that from the control [I-125] IUR | 0.5 ± 0.1 | <0.00001 | – | metabolic stability of glycosidic bond compared with [I-125] IUR [3]: still stabler than [I-125] IUR
Cn1c(=O)c([125I])cn([C@@H]2O[C@H](CO)[C@@H](O)[C@@H]2Br)c1=O [[I-125] IMBAU, [I-125]-5-iodo-1-methyl-(2-deoxy-2-bromo-β-D-arabinopentofuranosyl)uracil] | – | – | – | – | – | significantly smaller than that from the control [I-125] IUR | 0.0 | 0.0 | – | stability under heat treatment ([3]; boiling water bath for 3 minutes used to stop the reaction): unstable under heat treatment; metabolic stability of glycosidic bond compared with [I-125] IUR [3]: still stabler than [I-125] IUR
O=c1[nH]c(=O)n(C2S[C@H](CO)[C@@H](O)[C@@H]2O)cc1[125I] (stereo partly drawn) [[I-125] ITAU, [I-125]-5-iodo-1-(4-thio-D-arabinofuranosyl)uracil] | – | 1.68 ± 0.28 | – | 1.40** | 1.20 ± 0.20 | significantly smaller than that from the control [I-125] IUR | 514.8 ± 367.0 | <0.01 | < 0.01 | phosphorylation activity attributed to thymidine kinase (thymidine kinase): confirmed; Phosphorylated material production rate (thymidine kinase): 13.6 ± 6.6 p mole/mg protein/h; accumulated radioactivity in the thyroid gland (in vivo label stability) [4]: significantly smaller than that from the control [I-125] IUR; 5-iodouridine production rate [5]: 524.3 ± 373.8 p mole/units/30 min; metabolic stability of glycosidic bond compared with [I-125] IUR [5]: stabler than 5-iododeoxyuridine
O=c1[nH]c(=O)n([C@H]2C[C@H](O)[C@@H](CO)S2)cc1[125I] [[I-125] ITDU, [I-125]-5-iodo-4′-thio-2′-deoxyuridine] | – | 10.90 ± 1.48 | incorporated in cells in a thymidine kinase dependent way | 2.77* | 3.94 ± 0.63 | significantly smaller than that from the control [I-125] IUR | 3778.7 ± 692.0 | – | 0.03 | phosphorylation activity attributed to thymidine kinase (thymidine kinase): confirmed; Phosphorylated material production rate (thymidine kinase): 1182.7 ± 100.1 p mole/mg protein/h; accumulated radioactivity in the thyroid gland (in vivo label stability) [4]: significantly smaller than that from the control [I-125] IUR; accumulated radioactivity in proliferating tissues (thymus, small intestine) versus non-proliferating tissues (brain, liver, muscle) [6]: certainly higher than that in non-proliferating tissues; accumulation in proliferating tissues (% ID/g) [7]: accumulated in large amounts particularly in the thymus; 5-iodouridine production rate [5]: 4075.9 ± 736.4 p mole/units/30 min; metabolic stability of glycosidic bond compared with [I-125] IUR [5]: stabler than 5-iododeoxyuridine
O=c1[nH]c(=O)n([C@H]2C[C@H](O)[C@@H](CO)O2)cc1I [[I-125] IUR, 5-iododeoxyuridine, reference compound] | – | 77.80 ± 7.45 | incorporated in cells in a thymidine kinase dependent way | 2.79* | 27.86 ± 2.94 | – | – | 1.00 | 1.00 | accumulation in proliferating tissues (% ID/g) [7]: accumulated in large amounts particularly in the thymus
